Test results: patent publication US20150157022A1, “S[…] CONTROL AND IMPROVED CROP TOLERANCE FROM COMBINATIONS OF 2,4-D-CHOLINE AND G[…] 2,4-D- AND GLUFOSINATE-TOLERANT SOYBEANS, CORN, COTTON” (Dow AgroSciences LLC, priority 2013, published 2015)
Values joined by “and” are separate entries in the source; they are usually repeats but may differ in a detail not shown here. Identical values can stand only once. Counter-ions that a name gives are not always drawn.

Legend:
AAD12 Soybean (GLXMA) = assay: Field crop tolerance trial in 2,4-D- and glufosinate-tolerant soybean (% visual injury, chlorosis, growth inhibition)
Protocol: (§1) These trials were conducted under field conditions in multiple states in the United States, including but not limited to Arkansas, Illinois, Indiana, Minnesota, Mississippi,
(§2) Nebraska, Ohio, Oklahoma, Texas, South Carolina and South Dakota. […] Treatments were applied with small plot backpack sprayers, using pressurized air or carbon dioxide (CO2) as propellant. Pressure varied from 22-50 pounds per square inch (psi), with spray tips typically of a Flat Fan type applying water diluent at 15 gallons per acre (GPA). Boom sizes varied from 6.3-10 ft in width. Treatments were applied to soybean, cotton, corn or fallow crop land. Weed sizes varied, but all treatments were applied as post-emergence treatments to weeds from 2 leaf to 2 tiller growth stages varying from 2 to 15 inches in height. The weed spectrum included, but was not limited to, Amaranthus palmeri S. Wats. (Palmer amaranth, AMAPA), Conyza canadensis (L.) Cronq. (horseweed, ERICA), Salsola tragus L. (Russian thistle, SASKR) and Sesbania exaltata (hemp sesbania, SEBEX).
2,4-D- and glufosinate-tolerant soybeans, corn and cotton and optionally a glyphosate trait in a breeding (CP4 EPSPS) or a molecular stack (2mEPSPS) were used in all tolerance trials.
The 2,4-D-choline salt formulation was a 456 g ae/L SL. […] All treatments were mixed in water at appropriate formulated product rates to achieve the desired rates as shown based on a unit area of application (hectare). Treatments were rated at 2 to 28 days after application (DAA) as compared to the untreated control plants. The trial sites had naturally occurring populations of weeds. The treated plots and control plots were rated blind at various intervals after application. […]

[1] = test system: Conyza canadensis (L.) Cronq. (horseweed, ERICA); assay: Field trial, post-emergence weed control (% visual control), ERICA; type: in vivo
Protocol: as §1, §2
(§3) The 2,4-D-choline salt formulation was a 456 g ae/L SL. […] All treatments were mixed in water at appropriate formulated product rates to achieve the desired rates as shown based on a unit area of application (hectare). Treatments were rated at 2 to 28 days after application (DAA) as compared to the untreated control plants. The trial sites had naturally occurring populations of weeds. The treated plots and control plots were rated blind at various intervals after application.
(§4) Colby's equation was used to determine the herbicidal effects expected from the mixtures (Colby, S. R. Calculation of the synergistic and antagonistic response of herbicide combinations. Weeds 1967, 15, 20-22). A t-test (alpha=0.05) between Colby predictions and observed combinations was used to test for significant differences indicating synergy or antagonism using replicate data.
(§5) The following equation was used to calculate the expected activity of mixtures containing two active ingredients, A and B:
(§6) Expected=A+B−(A×B/100) • A=observed efficacy of active ingredient A at the same concentration as used in the mixture; • B=observed efficacy of active ingredient B at the same concentration as used in the mixture.

[2] = test system: Salsola tragus L. (Russian thistle, SASKR); assay: Field trial, post-emergence weed control (% visual control), SASKR; type: in vivo
Protocol: as §1, §2, §3, §4, §5, §6

[3] = test system: Sesbania exaltata (hemp sesbania, SEBEX); assay: Field trial, post-emergence weed control (% visual control), SEBEX; type: in vivo
Protocol: as §1, §2, §3, §4, §5, §6

[4] = test system: Amaranthus palmeri S. Wats. (Palmer amaranth, AMAPA); assay: Field trial, post-emergence weed control (% visual control), AMAPA; type: in vivo
Protocol: as §1, §2, §3, §4, §5, §6

O=C(O)COc1ccc(Cl)cc1Cl [2,4-D-Choline salt, 2-hydroxy-N,N,N-trimethylethanaminium 2-(2,4-dichlorophenoxy)acetate]
Mean % crop chlorosis (AAD12 Soybean (GLXMA); 2 DAA, 2130 g ae/ha): 0.0% and 2.3%
Mean % crop injury (AAD12 Soybean (GLXMA); 2 DAA, 2130 g ae/ha): 3.5% and 5.0%
Mean % crop chlorosis (AAD12 Soybean (GLXMA); 3 DAA, 1065 g ae/ha): 0.0%
Mean % crop injury (AAD12 Soybean (GLXMA); 3 DAA, 1065 g ae/ha): 0.3%
Mean % crop chlorosis (AAD12 Soybean (GLXMA); 3 DAA, 2130 g ae/ha): 0.0% and 1.3% and 0.8% and 0.5%
Mean % crop injury (AAD12 Soybean (GLXMA); 3 DAA, 2130 g ae/ha): 0.3%
Mean % crop chlorosis (AAD12 Soybean (GLXMA); 4 DAA, 1065 g ae/ha): 0.0%
Mean % crop injury (AAD12 Soybean (GLXMA); 4 DAA, 1065 g ae/ha): 0.0%
Mean % crop chlorosis (AAD12 Soybean (GLXMA); 4 DAA, 2130 g ae/ha): 0.0% and 0.7%
Mean % crop injury (AAD12 Soybean (GLXMA); 4 DAA, 2130 g ae/ha): 1.0%
Mean % crop injury (AAD12 Soybean (GLXMA); 6 DAA, 1065 g ae/ha): 4.0%
Mean % crop injury (AAD12 Soybean (GLXMA); 6 DAA, 2130 g ae/ha): 4.0%
Mean % crop chlorosis (AAD12 Soybean (GLXMA); 7 DAA, 1065 g ae/ha): 0.0%
Mean % crop chlorosis (AAD12 Soybean (GLXMA); 7 DAA, 2130 g ae/ha): 0.0% and 1.7% and 1.3% and 3.0%
Mean % crop growth inhibition (AAD12 Soybean (GLXMA); 7 DAA, 2130 g ae/ha): 1%
Mean % crop injury (AAD12 Soybean (GLXMA); 7 DAA, 2130 g ae/ha): 4.0% and 13.3%
Mean % crop chlorosis (AAD12 Soybean (GLXMA); 8 DAA, 1065 g ae/ha): 0.0%
Mean % crop chlorosis (AAD12 Soybean (GLXMA); 8 DAA, 2130 g ae/ha): 0.0%
Mean % crop chlorosis (AAD12 Soybean (GLXMA); 9 DAA, 1065 g ae/ha): 0.0%
Mean % crop injury (AAD12 Soybean (GLXMA); 9 DAA, 1065 g ae/ha): 0.0%
Mean % crop chlorosis (AAD12 Soybean (GLXMA); 9 DAA, 2130 g ae/ha): 0.0%
Mean % crop injury (AAD12 Soybean (GLXMA); 9 DAA, 2130 g ae/ha): 0.0%
Mean % crop chlorosis (AAD12 Soybean (GLXMA); 13 DAA, 1065 g ae/ha): 0.0%
Mean % crop injury (AAD12 Soybean (GLXMA); 13 DAA, 1065 g ae/ha): 2.0%
Mean % crop chlorosis (AAD12 Soybean (GLXMA); 13 DAA, 2130 g ae/ha): 0.0%
Mean % crop injury (AAD12 Soybean (GLXMA); 13 DAA, 2130 g ae/ha): 3.3%
Mean % crop chlorosis (AAD12 Soybean (GLXMA); 14 DAA, 1065 g ae/ha): 0.0%
Mean % crop injury (AAD12 Soybean (GLXMA); 14 DAA, 1065 g ae/ha): 3.0% and 0.0%
Mean % crop chlorosis (AAD12 Soybean (GLXMA); 14 DAA, 2130 g ae/ha): 0.0% and 0.8% and 1.3%
Mean % crop growth inhibition (AAD12 Soybean (GLXMA); 14 DAA, 2130 g ae/ha): 0%
Mean % crop injury (AAD12 Soybean (GLXMA); 14 DAA, 2130 g ae/ha): 2.3%
Mean % crop chlorosis (AAD12 Soybean (GLXMA); 15 DAA, 2130 g ae/ha): 0.0%
Mean % crop growth inhibition (AAD12 Soybean (GLXMA); 15 DAA, 2130 g ae/ha): 0%
Mean % crop injury (AAD12 Soybean (GLXMA); 15 DAA, 2130 g ae/ha): 0.0%
Mean % weed control ([1]; 7 DAA, 1065 g ae/ha): 40.0%
Mean % weed control ([1]; 13 DAA, 1065 g ae/ha): 40.0%
Mean % weed control ([1]; 22 DAA, 1065 g ae/ha): 40.0%
Mean % weed control ([1]; 28 DAA, 1065 g ae/ha): 30.0%
Mean % weed control ([2]; 14 DAA, 1065 g ae/ha): 67.5%
Mean % weed control ([2]; 21 DAA, 1065 g ae/ha): 65.0%
Mean % weed control ([3]; 8 DAA, 800 g ae/ha): 32.5%
Mean % weed control ([3]; 16 DAA, 800 g ae/ha): 42.5%
Mean % weed control ([3]; 23 DAA, 800 g ae/ha): 38.8%
Mean % weed control ([4]; 7 DAA, 800 g ae/ha): 47.5%
Mean % weed control ([4]; 10 DAA, 1065 g ae/ha): 55.0%
Mean % weed control ([4]; 13 DAA, 1065 g ae/ha): 45.0%
Mean % weed control ([4]; 16 DAA, 800 g ae/ha): 62.5%
Mean % weed control ([4]; 21 DAA, 1065 g ae/ha): 38.8%
Mean % weed control ([4]; 22 DAA, 800 g ae/ha): 48.8%

CP(=O)(O)CCC(N)C(=O)O (stereo not shown) [Glufosinate-ammonium, ammonium (3-amino-3-carboxypropyl)(methyl)phosphinate]
Mean % weed control ([1]; 7 DAA, 542 g ae/ha): 75.0%
Mean % weed control ([1]; 13 DAA, 542 g ae/ha): 85.0%
Mean % weed control ([1]; 22 DAA, 542 g ae/ha): 80.0%
Mean % weed control ([1]; 28 DAA, 542 g ae/ha): 98.0%
Mean % weed control ([2]; 14 DAA, 542 g ae/ha): 12.5%
Mean % weed control ([2]; 21 DAA, 542 g ae/ha): 6.3%
Mean % weed control ([3]; 8 DAA, 542 g ae/ha): 73.8%
Mean % weed control ([3]; 16 DAA, 542 g ae/ha): 78.8%
Mean % weed control ([3]; 23 DAA, 542 g ae/ha): 65.0%
Mean % weed control ([4]; 7 DAA, 542 g ae/ha): 80.0%
Mean % weed control ([4]; 10 DAA, 542 g ae/ha): 54.3%
Mean % weed control ([4]; 13 DAA, 542 g ae/ha): 75.0%
Mean % weed control ([4]; 16 DAA, 542 g ae/ha): 65.0%
Mean % weed control ([4]; 21 DAA, 542 g ae/ha): 51.3%
Mean % weed control ([4]; 22 DAA, 542 g ae/ha): 56.3%
